From article PMC6749364, “Pharmacokinetics and Tissue Distribution of Alnustone in Rats after Intravenous Administration by Liquid Chromatography-Mass Spectrometry” (Molecules, 2019)

Legend:
[1] = Stability of alnustone in rat plasma and tissue homogenates (QC samples); type: in vitro ADME, rats; conditions: in % (unit assumed)
Experimental: The calibration standards were prepared by spiking a certain volume of blank plasma or blank tissue homogenates with appropriate amounts of working solutions to yield a final concentration range from 1 to 2000 ng/mL. The effective concentrations of alnustone were 1, 5, 10, 40, 160, 200, 800, 2000 ng/mL for the plasma samples and tissue homogenates samples (heart, liver, spleen, lung, kidney, brain, stomach, intestine). […]
The stability tests involved the following four conditions. The short-term stability study was examined by analyzing samples at room temperature for 4 h. The long-term stability study was performed by analyzing samples stored at −75 °C for 1 month. For the freeze-thaw stability study, the samples were analyzed after three freeze/thaw cycles (−75 °C to 25 °C). The post-preparative storage stability was assessed by analyzing the samples left in autosampler vials at 4 °C for 24 h. The stability analysis was performed using three aliquots of each QC samples at three different concentrations. The samples were considered stable if the assay values were within the acceptable limits of accuracy (±15% RE) and precision (≤15% RSD).

[2] = system: LO-2 (human normal liver cells); design: method as in earlier work; conditions: LO-2 cell line; cited from earlier work
[3] = Brain homogenate, QC 1600 ng/mL
[4] = Heart homogenate, QC 1600 ng/mL
[5] = Intestine homogenate, QC 1 ng/mL
[6] = Intestine homogenate, QC 5 ng/mL
[7] = Intestine homogenate, QC 100 ng/mL
[8] = Intestine homogenate, QC 1600 ng/mL
[9] = Kidney homogenate, QC 100 ng/mL
[10] = Kidney homogenate, QC 1600 ng/mL
[11] = Liver homogenate, QC 1600 ng/mL
[12] = Spleen homogenate, QC 100 ng/mL
[13] = Spleen homogenate, QC 1600 ng/mL

O=C(/C=C/C=C/c1ccccc1)CCc1ccccc1 [alnustone, Alnustone]
Stability: Autosampler 4 °C for 24 h ([1]; Brain homogenate, QC 1 ng/mL): 109.2 ± 6.7 | Stability: Short-Term (at Room Temperature for 4 h) ([1]; Brain homogenate, QC 1 ng/mL): 110.6 ± 5.8 | Stability: Storage at −75°C for 30 d ([1]; Brain homogenate, QC 1 ng/mL): 103.8 ± 4.1 | Stability: Three Freeze-Thraw Cycles ([1]; Brain homogenate, QC 1 ng/mL): 86.5 ± 6.1 | Stability: Autosampler 4 °C for 24 h ([1]; Brain homogenate, QC 5 ng/mL): 104.9 ± 7.0 | Stability: Short-Term (at Room Temperature for 4 h) ([1]; Brain homogenate, QC 5 ng/mL): 109.0± 4.4 | Stability: Storage at −75°C for 30 d ([1]; Brain homogenate, QC 5 ng/mL): 108.9 ± 3.8 | Stability: Three Freeze-Thraw Cycles ([1]; Brain homogenate, QC 5 ng/mL): 89.2 ± 4.6 | Stability: Autosampler 4 °C for 24 h ([1]; Brain homogenate, QC 100 ng/mL): 95.4 ± 5.7 | Stability: Short-Term (at Room Temperature for 4 h) ([1]; Brain homogenate, QC 100 ng/mL): 99.3 ± 7.5 | Stability: Storage at −75°C for 30 d ([1]; Brain homogenate, QC 100 ng/mL): 90.2 ± 7.4 | Stability: Three Freeze-Thraw Cycles ([1]; Brain homogenate, QC 100 ng/mL): 98.0 ± 8.1 | Stability: Autosampler 4 °C for 24 h [1, 3]: 104.2 ± 4.9 | Stability: Short-Term (at Room Temperature for 4 h) [1, 3]: 96.3 ± 7.4 | Stability: Storage at −75°C for 30 d [1, 3]: 112.3 ± 8.9 | Stability: Three Freeze-Thraw Cycles [1, 3]: 110.2 ± 6.8 | Stability: Autosampler 4 °C for 24 h ([1]; Heart homogenate, QC 100 ng/mL): 89.0 ± 3.4 | Stability: Storage at −75°C for 30 d ([1]; Heart homogenate, QC 100 ng/mL): 112.4 ± 4.0 | Stability: Three Freeze-Thraw Cycles ([1]; Heart homogenate, QC 100 ng/mL): 104.8 ± 6.6 | Stability: Autosampler 4 °C for 24 h [1, 4]: 90.3 ± 5.2 | Stability: Short-Term (at Room Temperature for 4 h) [1, 4]: 91.8 ± 5.8 | Stability: Storage at −75°C for 30 d [1, 4]: 95.6 ± 5.4 | Stability: Three Freeze-Thraw Cycles [1, 4]: 95.3 ± 9.0 | Stability: Autosampler 4 °C for 24 h [1, 5]: 90.0 ± 5.7 | Stability: Short-Term (at Room Temperature for 4 h) [1, 5]: 89.6 ± 8.1 | Stability: Storage at −75°C for 30 d [1, 5]: 96.5 ± 5.7 | Stability: Three Freeze-Thraw Cycles [1, 5]: 113.7 ± 8.7 | Stability: Autosampler 4 °C for 24 h [1, 6]: 90.9 ± 5.0 | Stability: Short-Term (at Room Temperature for 4 h) [1, 6]: 95.8 ± 7.7 | Stability: Storage at −75°C for 30 d [1, 6]: 92.6 ± 3.7 | Stability: Three Freeze-Thraw Cycles [1, 6]: 108.7 ± 9.4 | Stability: Autosampler 4 °C for 24 h [1, 7]: 98.0 ± 4.9 | Stability: Short-Term (at Room Temperature for 4 h) [1, 7]: 95.3 ± 6.7 | Stability: Storage at −75°C for 30 d [1, 7]: 114.4 ± 4.9 | Stability: Three Freeze-Thraw Cycles [1, 7]: 96.9 ± 3.8 | Stability: Autosampler 4 °C for 24 h [1, 8]: 103.0 ± 8.4 | Stability: Short-Term (at Room Temperature for 4 h) [1, 8]: 105.9 ± 7.1 | Stability: Storage at −75°C for 30 d [1, 8]: 107.0 ± 4.3 | Stability: Three Freeze-Thraw Cycles [1, 8]: 113.6 ± 2.8 | Stability: Autosampler 4 °C for 24 h ([1]; Kidney homogenate, QC 1 ng/mL): 116.5 ± 8.0 | Stability: Short-Term (at Room Temperature for 4 h) ([1]; Kidney homogenate, QC 1 ng/mL): 107.8 ± 7.5 | Stability: Storage at −75°C for 30 d ([1]; Kidney homogenate, QC 1 ng/mL): 89.8 ± 8.1 | Stability: Three Freeze-Thraw Cycles ([1]; Kidney homogenate, QC 1 ng/mL): 93.7 ± 7.0 | Stability: Autosampler 4 °C for 24 h ([1]; Kidney homogenate, QC 5 ng/mL): 114.1 ± 7.4 | Stability: Short-Term (at Room Temperature for 4 h) ([1]; Kidney homogenate, QC 5 ng/mL): 110.7 ± 6.6 | Stability: Storage at −75°C for 30 d ([1]; Kidney homogenate, QC 5 ng/mL): 88.5 ± 6.4 | Stability: Three Freeze-Thraw Cycles ([1]; Kidney homogenate, QC 5 ng/mL): 95.7 ± 5.7 | Stability: Autosampler 4 °C for 24 h [1, 9]: 108.0 ± 5.7 | Stability: Short-Term (at Room Temperature for 4 h) [1, 9]: 109.7 ± 8.3 | Stability: Storage at −75°C for 30 d [1, 9]: 111.0 ± 7.5 | Stability: Three Freeze-Thraw Cycles [1, 9]: 90.9 ± 7.0 | Stability: Autosampler 4 °C for 24 h [1, 10]: 95.9 ± 6.0 | Stability: Short-Term (at Room Temperature for 4 h) [1, 10]: 100.7 ± 7.0 | Stability: Storage at −75°C for 30 d [1, 10]: 100.5 ± 10.6 | Stability: Three Freeze-Thraw Cycles [1, 10]: 112.5 ± 5.2 | Stability: Autosampler 4 °C for 24 h ([1]; Liver homogenate, QC 1 ng/mL): 93.1 ± 5.7 | Stability: Short-Term (at Room Temperature for 4 h) ([1]; Liver homogenate, QC 1 ng/mL): 98.8 ± 6.8 | Stability: Storage at −75°C for 30 d ([1]; Liver homogenate, QC 1 ng/mL): 111.5 ± 6.9 | Stability: Three Freeze-Thraw Cycles ([1]; Liver homogenate, QC 1 ng/mL): 101.5 ± 10.1 | Stability: Autosampler 4 °C for 24 h ([1]; Liver homogenate, QC 5 ng/mL): 95.3 ± 3.2 | Stability: Short-Term (at Room Temperature for 4 h) ([1]; Liver homogenate, QC 5 ng/mL): 95.4 ± 5.8 | Stability: Storage at −75°C for 30 d ([1]; Liver homogenate, QC 5 ng/mL): 106.5 ± 10.1 | Stability: Three Freeze-Thraw Cycles ([1]; Liver homogenate, QC 5 ng/mL): 98.8 ± 9.9 | Stability: Autosampler 4 °C for 24 h ([1]; Liver homogenate, QC 100 ng/mL): 101.3 ± 5.6 | Stability: Short-Term (at Room Temperature for 4 h) ([1]; Liver homogenate, QC 100 ng/mL): 111.0 ± 4.9 | Stability: Storage at −75°C for 30 d ([1]; Liver homogenate, QC 100 ng/mL): 105.4 ± 7.2 | Stability: Three Freeze-Thraw Cycles ([1]; Liver homogenate, QC 100 ng/mL): 108.4 ± 7.8 | Stability: Autosampler 4 °C for 24 h [1, 11]: 94.8 ± 7.7 | Stability: Short-Term (at Room Temperature for 4 h) [1, 11]: 106.4 ± 6.0 | Stability: Storage at −75°C for 30 d [1, 11]: 97.7 ± 6.8 | Stability: Three Freeze-Thraw Cycles [1, 11]: 98.3 ± 6.3 | Stability: Autosampler 4 °C for 24 h ([1]; Lung homogenate, QC 1 ng/mL): 105.8 ± 7.0 | Stability: Short-Term (at Room Temperature for 4 h) ([1]; Lung homogenate, QC 1 ng/mL): 89.5 ± 7.6 | Stability: Storage at −75°C for 30 d ([1]; Lung homogenate, QC 1 ng/mL): 103.4 ± 8.7 | Stability: Three Freeze-Thraw Cycles ([1]; Lung homogenate, QC 1 ng/mL): 108.2 ± 9.5 | Stability: Autosampler 4 °C for 24 h ([1]; Lung homogenate, QC 5 ng/mL): 103.4 ± 7.1 | Stability: Short-Term (at Room Temperature for 4 h) ([1]; Lung homogenate, QC 5 ng/mL): 92.4 ± 6.4 | Stability: Storage at −75°C for 30 d ([1]; Lung homogenate, QC 5 ng/mL): 93.0 ± 9.6 | Stability: Three Freeze-Thraw Cycles ([1]; Lung homogenate, QC 5 ng/mL): 105.8 ± 8.7 | Stability: Autosampler 4 °C for 24 h ([1]; Lung homogenate, QC 100 ng/mL): 98.4 ± 5.4 | Stability: Short-Term (at Room Temperature for 4 h) ([1]; Lung homogenate, QC 100 ng/mL): 106.4 ± 8.6 | Stability: Storage at −75°C for 30 d ([1]; Lung homogenate, QC 100 ng/mL): 101.0 ± 7.5 | Stability: Three Freeze-Thraw Cycles ([1]; Lung homogenate, QC 100 ng/mL): 94.4 ± 2.6 | Stability: Autosampler 4 °C for 24 h ([1]; Lung homogenate, QC 1600 ng/mL): 100.6 ± 9.7 | Stability: Short-Term (at Room Temperature for 4 h) ([1]; Lung homogenate, QC 1600 ng/mL): 91.2 ± 6.8 | Stability: Storage at −75°C for 30 d ([1]; Lung homogenate, QC 1600 ng/mL): 92.3 ± 6.3 | Stability: Three Freeze-Thraw Cycles ([1]; Lung homogenate, QC 1600 ng/mL): 93.8 ± 4.6 | Stability: Autosampler 4 °C for 24 h ([1]; Spleen homogenate, QC 1 ng/mL): 108.0 ± 6.0 | Stability: Short-Term (at Room Temperature for 4 h) ([1]; Spleen homogenate, QC 1 ng/mL): 108.5± 6.4 | Stability: Storage at −75°C for 30 d ([1]; Spleen homogenate, QC 1 ng/mL): 102.3 ± 4.9 | Stability: Three Freeze-Thraw Cycles ([1]; Spleen homogenate, QC 1 ng/mL): 101.2 ± 7.4 | Stability: Autosampler 4 °C for 24 h ([1]; Spleen homogenate, QC 5 ng/mL): 101.8 ± 4.3 | Stability: Short-Term (at Room Temperature for 4 h) ([1]; Spleen homogenate, QC 5 ng/mL): 114.7 ± 5.8 | Stability: Storage at −75°C for 30 d ([1]; Spleen homogenate, QC 5 ng/mL): 98.1 ± 3.9 | Stability: Three Freeze-Thraw Cycles ([1]; Spleen homogenate, QC 5 ng/mL): 106.2 ± 6.9 | Stability: Autosampler 4 °C for 24 h [1, 12]: 92.9 ± 6.5 | Stability: Short-Term (at Room Temperature for 4 h) [1, 12]: 107.5 ± 8.9 | Stability: Storage at −75°C for 30 d [1, 12]: 114.3 ± 6.6 | Stability: Three Freeze-Thraw Cycles [1, 12]: 105.3 ± 3.1 | Stability: Autosampler 4 °C for 24 h [1, 13]: 102.1 ± 9.3 | Stability: Short-Term (at Room Temperature for 4 h) [1, 13]: 104.4 ± 6.1 | Stability: Storage at −75°C for 30 d [1, 13]: 104.0 ± 3.2 | Stability: Three Freeze-Thraw Cycles [1, 13]: 92.9 ± 7.6 | antitumor activity in vitro [2]: significant antitumor activity
